Laboratory results: patent EP4702986A1, “POLYPEPTIDE AND USE THEREOF” (Biocells (Beijing) Biotech Co., Ltd., priority 2023, dated 2024)
Where two headings read alike, the source gives them in different places. Numbered stars: 1 amine (or outer) side, 2 acyl side, 3 side chain; on linkers, the order of the positions; unused ones are H or OH. Bridge positions count the residues as written; N and C are the ends. Side chains are listed from the residue outwards. Ends that are not written are not given here. Peptide text beside a SMILES is read from it. * marks the point of attachment. C18 diacid = O=C(O)CCCCCCCCCCCCCCCCC(=O)*; γGlu = O=C(O)[C@H](CCC(=O)[*:2])N[*:1]; Palmitoyl = CCCCCCCCCCCCCCCC(=O)*; Fumaroyl = O=C(O)/C=C/C(=O)*; Suc = O=C(CCC(=O)[*:2])[*:1]; AEEA = NCCOCCOCC(=O)O

Assays:
human ETA receptor = biological target: T1, human ETA receptor (Homo sapiens, UniProt P25101); experiment: Selectivity of polypeptides on human ETA receptor (IP-One Gq kit, % of positive control ET1); type: cell-based; conditions: for activation at 10 µM / activation at 100 µM: read-out: hETAR agonist activity, percentage of activity relative to ET1
T1 construct: expressed in transfected cells; host or cells: 293T-17 cells, transient transfection
T1 sequence (P25101 21-427): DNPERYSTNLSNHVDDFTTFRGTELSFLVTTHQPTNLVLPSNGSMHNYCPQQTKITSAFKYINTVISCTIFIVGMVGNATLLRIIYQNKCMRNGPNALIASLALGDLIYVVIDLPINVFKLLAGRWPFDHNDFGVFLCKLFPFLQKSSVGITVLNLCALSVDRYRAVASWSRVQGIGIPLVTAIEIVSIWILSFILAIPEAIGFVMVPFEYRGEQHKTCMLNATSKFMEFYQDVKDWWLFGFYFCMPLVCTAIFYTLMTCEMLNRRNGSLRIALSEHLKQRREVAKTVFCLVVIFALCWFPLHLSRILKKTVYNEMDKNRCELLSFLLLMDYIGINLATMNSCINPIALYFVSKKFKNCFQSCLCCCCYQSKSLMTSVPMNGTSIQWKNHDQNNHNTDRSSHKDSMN
Protocol: 293T-17 cells were seeded at a density of 650,000 cells per well in a 6-well plate and cultured overnight in an incubator at 37°C and 5% CO2. Afterward, the cells were transfected with an expression vector, PCDNA3.1-hETA which contained a human ETA receptor gene, at a plasmid concentration of 2.5 µg per well. The cells were further cultured for 48 hours, and green fluorescence expression was observed under a fluorescence microscope. The cells were then digested with trypsin and counted. The activity of compounds on the human ETA receptor was determined with the IP-One Gq kit from Cisbio Bioassays. The cells were suspended in Stim Buffer provided in the kit and the cell suspension was added to a 96-well detection plate at 7 µL cell suspension (containing 30,000 cells) per well. The polypeptides to be screened for activity (prepared according to the Preparation Example of the invention) and polypeptide human endothelin ET1 as positive control were dissolved in Stim B to be at a concentration of 2×, and 7 µL was added to the test cells, while 7 µL of PBS solution was added to the cells in the negative control wells. Human endothelin ET1 (ET1: […] (C1-C15,C3-C11)) set forth in SEQ ID No. 85 was used as the positive control polypeptide. The plate was sealed and incubated at 37°C for 1 h in a cell culture incubator. Detection wells, positive control wells, and PBS control wells were each added with 3 µL of IP1 d2 working solution and 3 µL of IP1 Tb cryptotate Antibody working solution. The plate was sealed and incubated in the dark at room temperature (25°C±5°C) for 1 h. The plate seal was removed, and the […] at 665 nm and 620 nm was measured with an ID5 microplate reader. The ratio of the acceptor emission signal to the donor emission signal, i.e., the value of (signal at 665 nm/signal at 620 nm)×10^4, was calculated for each well. With F3 representing the average value of values of signal at 665 nm/signal at 620 nm determined for the test sample at a specific concentration, F5 representing the average value of values of signal at 665 nm/signal at 620 nm determined for the positive control human endothelin ET1 at the same concentration, and T3 representing the average value of values of signal at 665 nm/signal at 620 nm determined for the PBS negative control, the percentage of activity of the test polypeptide sample relative to the positive control sample ET1 = (F3-T3)×100/(F5-T3) (see Table 6). hETA sequence (NCBI accession number L06622.1).

human ETB receptor = biological target: T2, human ETB receptor (Homo sapiens, UniProt P24530); experiment: Screening of polypeptides for activity on human ETB receptor (IP-One Gq kit, % of positive control IRL1620); type: cell-based
T2 construct: expressed in transfected cells; host or cells: 293T-17 cells, transient transfection
T2 sequence (P24530 27-442): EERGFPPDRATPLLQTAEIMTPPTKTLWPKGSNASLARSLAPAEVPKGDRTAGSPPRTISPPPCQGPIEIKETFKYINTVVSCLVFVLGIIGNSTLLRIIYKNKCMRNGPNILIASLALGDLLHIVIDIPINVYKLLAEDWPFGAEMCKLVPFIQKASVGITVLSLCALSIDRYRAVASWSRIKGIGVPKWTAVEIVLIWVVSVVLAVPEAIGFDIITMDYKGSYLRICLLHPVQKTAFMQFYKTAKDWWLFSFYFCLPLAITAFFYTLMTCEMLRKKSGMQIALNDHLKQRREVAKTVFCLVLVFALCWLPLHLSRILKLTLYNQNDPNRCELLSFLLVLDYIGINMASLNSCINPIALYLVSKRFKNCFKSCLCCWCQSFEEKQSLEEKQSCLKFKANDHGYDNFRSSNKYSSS
Protocol: 293T-17 cells were seeded at a density of 650,000 cells per well in a 6-well plate and cultured overnight in an incubator at 37°C and 5% CO2. Afterward, the cells were transfected with an expression vector, PCDNA3.1-hETB which contained a human ETB receptor gene, at a plasmid concentration of 2.5 µg per well. The cells were further cultured for 48 hours, and green fluorescence expression was observed under a fluorescence microscope. The cells were then digested with trypsin and counted. The activity of compounds on the human ETB receptor was determined with the IP-One Gq kit from Cisbio Bioassays. The cells were suspended in Stim Buffer provided in the kit and the cell suspension was added to a 96-well detection plate at 7 µL cell suspension (containing 30,000 cells) per well. The polypeptides to be screened for activity (prepared according to the Preparation Example of the invention) and polypeptide IRL1620 as positive control were dissolved in Stim B to be at a concentration of 2×, and 7 µL was added to the test cells, while 7 µL of PBS solution was added to the cells in the negative control wells. IRL1620 was used as the positive control polypeptide. The plate was sealed and incubated at 37°C for 1 hour in a cell culture incubator. Test wells, positive control wells, and PBS control wells were each added with 3 µL of IP1 d2 working solution and 3 µL of IP1 Tb cryptotate Antibody working solution. The plate was then sealed and incubated in the dark at room temperature (25°C±5°C) for 1 hour. The plate seal was removed, and the […] at 665 nm and 620 nm was measured with an ID5 microplate reader. The ratio of the acceptor emission signal to the donor emission signal, i.e., the value of (signal at 665 nm/signal at 620 nm)×10^4, was calculated for each well. With F1 representing the average value of values of signal at 665 nm/signal at 620 nm determined for the test sample at a specific concentration, F2 representing the average value of values of signal at 665 nm/signal at 620 nm determined for the positive control IRL1620 at the same concentration, and T1 representing the average value of values of signal at 665 nm/signal at 620 nm determined for the PBS negative control, the percentage of activity of the test polypeptide sample relative to the positive control sample IRL1620 is equal to (F1-T1)×100/(F2-T1). hETB sequence (NCBI accession number NM_000115.5).

[1] = Determination of half-lives of polypeptides (plasma, LC-MS); conditions: for half-life: C57 BL/6, mouse, plasma, iv; for AUClast 0-30 min: C57 BL/6 mice, dosage per compound 0.48, 0.96 or 1 mpk

| Molecule | hETAR agonist activity, percentage of activity relative to ET1 (human ETA receptor) [%@100µM] | hETAR agonist activity, percentage of activity relative to ET1 (human ETA receptor; @10µM) [%@10µM] | hETBR agonist activity, percentage of activity relative to IRL1620 (human ETB receptor) [%@100nM] | hETBR agonist activity, percentage of activity relative to IRL1620 (human ETB receptor; @10nM) [%@10nM] | half-life [1] [min] | AUClast 0-30 min ([1]; i.v.) [ng·h/mL] | other results |
| --- | --- | --- | --- | --- | --- | --- | --- |
| Suc-DEEAVYFAHK(-γE-AEEA-AEEA-ODDA)DVIW (Suc-DEEAVYFAHK([γGlu-AEEA-AEEA-C18 diacid])DVIW) [BX-78] | -23.02 | -6.06 | 23.41 | -14.2 | – | – | – |
| Suc-D cyclo(EEAK)YFAHK(-γE-AEEA-AEEA-ODDA)DVIW [BX-79] | -12.17 | -46.08 | 19.85 | 2.13 | – | – | – |
| CCCCCCCCCCCCCCCC(=O)NCCOCCOCC(=O)NCCOCCOCC(=O)N[C@@H](CCC(=O)NCCCC[C@H](NC(=O)[C@H](Cc1c[nH]cn1)NC(=O)[C@H](C)NC(=O)[C@H](Cc1ccccc1)NC(=O)[C@H](Cc1ccc(O)cc1)NC(=O)[C@@H](NC(=O)[C@H](C)NC(=O)[C@H](CCC(=O)O)NC(=O)[C@H](CCC(=O)O)NC(=O)[C@H](CC(=O)O)NC(=O)/C=C/C(=O)O)C(C)C)C(=O)N[C@@H](CC(=O)O)C(=O)N[C@H](C(=O)N[C@H](C(=O)N[C@@H](Cc1c[nH]c2ccccc12)C(=O)O)[C@@H](C)CC)[C@@H](C)CC)C(=O)O [BX-70] (Fumaroyl-DEEAVYFAHK([γGlu-AEEA-AEEA-Palmitoyl])DIIW-OH) | – | – | – | – | 41 | 1701 | activation at 10 µM (human ETA receptor): -15.8%; activation at 100 µM (human ETA receptor): 13.5%; T1/2 ([1]; Table 1, mice, i.v.): T1/2=41min; |
| Suc-D cyclo(EEAK)YFAHLD(2-Abu)IW [BX-63] | 4.43 | -15.24 | 122.93 | 90.08 | – | – | – |
| CC[C@H](C)[C@H](NC(=O)[C@@H](NC(=O)[C@H](CC(=O)O)NC(=O)[C@H](CC(C)C)NC(=O)[C@H](Cc1c[nH]cn1)NC(=O)[C@H](C)NC(=O)[C@H](Cc1ccccc1)NC(=O)[C@H](Cc1ccc(O)cc1)NC(=O)[C@@H]1CCCCNC(=O)CC[C@H](NC(=O)[C@H](CC(=O)O)NC(=O)CCC(=O)O)C(=O)N[C@@H](CCC(=O)O)C(=O)N[C@@H](C)C(=O)N1)C(C)C)C(=O)N[C@@H](Cc1c[nH]c2ccccc12)C(=O)O [BX-76] (Suc-DEEAKYFAHLDVIW-OH; lactam 2-5) | – | – | – | – | 3.6 | 250 | activation at 10 µM (human ETA receptor): -20.9%; activation at 100 µM (human ETA receptor): -7.56% |
| Fum-D cyclo(EEAK)YFAHLD(2-Abu)IW [BX-64] | 6.41 | -13.52 | 132.16 | 79.92 | – | – | – |
| Suc-D cyclo(EEAK)YFAHK(-γE-AEEA-AEEA-ODDA)DIIW [BX-77] | -6.32 | -29.53 | 4.69 | -16.59 | – | – | – |
| Fum-DEE cyclo(EVYFK)HKD(2-Abu)IW [BX-62] | – | – | 129.39 | 99.31 | – | – | hETAR agonist activity, percentage of activity relative to ET1 (human ETA receptor; @10nM): -17.37%@10nM; hETAR agonist activity, percentage of activity relative to ET1 (human ETA receptor; @100nM): -19.09%@100nM |
| Fum-D cyclo(EEAK)YFAHK(-γE-AEEA-AEEA-ODDA)DVIW [BX-100] | 9.52 | -39.09 | 15.03 | 18.79 | – | – | – |
| CC[C@H](C)[C@H](NC(=O)[C@H](CC(=O)O)NC(=O)[C@H](CCCCN)NC(=O)[C@H](Cc1c[nH]cn1)NC(=O)[C@H](C)NC(=O)[C@H](Cc1ccccc1)NC(=O)[C@H](Cc1ccc(O)cc1)NC(=O)[C@@H](NC(=O)[C@H](C)NC(=O)[C@H](CCC(=O)O)NC(=O)[C@H](CCC(=O)O)NC(=O)[C@H](CC(=O)O)NC(=O)/C=C/C(=O)O)C(C)C)C(=O)N[C@H](C(=O)N[C@@H](Cc1c[nH]c2ccccc12)C(=O)O)[C@@H](C)CC [F-BX-5] (Fumaroyl-DEEAVYFAHKDIIW-OH) | – | – | – | – | < 3 | 127 | – |
| CC[C@H](C)[C@H](NC(=O)[C@H](CC(=O)O)NC(=O)[C@H](CC(C)C)NC(=O)[C@H](Cc1c[nH]cn1)NC(=O)[C@H](C)NC(=O)[C@H](Cc1ccccc1)NC(=O)[C@H](Cc1ccc(O)cc1)NC(=O)[C@@H]1CSSC[C@H](NC(=O)[C@H](CCC(=O)O)NC(=O)[C@H](CC(=O)O)NC(=O)CCC(=O)O)C(=O)N[C@@H](CCC(=O)O)C(=O)N[C@@H](CCC(=O)O)C(=O)N1)C(=O)N[C@H](C(=O)N[C@@H](Cc1c[nH]c2ccccc12)C(=O)O)[C@@H](C)CC [BX-56] (Suc-DECEECYFAHLDIIW-OH; disulfide 3-6) | – | – | – | – | 8.9 | 1376 | – |
| Fum-DEEK(-γE-AEEA-AEEA-ODDA)VYFAHLDIIW (Fum-DEEK with lipidated linker N-terminal) [BX-66] | -0.94 | 13.13 | 60.51 | 7.67 | – | – | – |
